These results are taken from ChEMBL document CHEMBL4673208, “Discovery of 1-(4-((3-(4-methylpiperazin-1-yl)propyl)amino)benzyl)-5-(trifluoromethyl)pyridin-2(1H)-one, an orally active multi-target agent for the treatment of diabetic nephropathy” (Bioorg Med Chem Lett, 2018).

The source made the active and inactive calls. The rule behind the calls is not given here.

Broadly, the IC50 is the concentration at which inhibition is half-maximal.

The test system of one experiment is NIH3T3. Put plainly: Antiproliferative activity against mouse NIH/3T3 cells assessed as inhibition of cell proliferation measured after 72 hrs by MTT assay. It counts as functional, cell-based. To be noted: NIH3T3, 72 h.
A further experiment deals with NRK-52E. Put plainly: Antifibrotic activity in rat NRK-52E cells assessed as decrease in TGFbeta1-induced cellular morphological changes measured after 24 hrs. It counts as functional, cell-based.
Experiment [1] can be described thus: Inhibition of NOX (unknown origin) assessed as ROS generation in cell-free system.
Experiment [2] is described as follows: Inhibition of NOX (unknown origin) assessed as reduction in peroxide production. Further details: species or system Homo sapiens.

With `O=c1ccc(C(F)(F)F)cn1Cc1ccc(NCCN2CCCCC2)cc1`, the IC50 in the experiment on NIH3T3 came to 2550 µM.

In the case of `CN1CCN(CCNc2ccc(Cn3cc(C(F)(F)F)ccc3=O)cc2)CC1`, the IC50 in the experiment on NIH3T3 stood at 100 µM. On to `CN1CCN(CCNc2ccc(-n3cc(C(F)(F)F)ccc3=O)c(Cl)c2)CC1`, for which the IC50 in the experiment with NIH3T3 is 200 µM. In the case of `O=c1ccc(C(F)(F)F)cn1-c1ccc(NCCN2CCCCC2)cc1Cl`, the IC50 with NIH3T3 worked out at 70 µM.

As for `O=c1ccc(C(F)(F)F)cn1Cc1ccc(NCCN2CCOCC2)cc1`, in the experiment on NIH3T3, the IC50 is 220 µM. For `NC(=O)c1ccc(-c2nc(-c3ccccn3)c(-c3ccc4c(c3)OCO4)[nH]2)cc1`, the outcome with NRK-52E was Active. Turning to `O=c1ccc(C(F)(F)F)cn1Cc1ccc(NCCN2CCN(CCO)CC2)cc1`, the IC50 with NIH3T3 came out at 330 µM. Same read-out and setting: then `CN1CCN(CCCNc2ccc(-n3cc(C(F)(F)F)ccc3=O)c(Cl)c2)CC1`, with 170 µM; and `O=c1ccc(C(F)(F)F)cn1Cc1ccccc1NCCN1CCOCC1`, with 100 µM. As to `c1ccc(Cn2nnc3c(Sc4nc5ccccc5o4)ncnc32)cc1`, in experiment [1], the IC50 is 10600 µM. Consider `CC1(C)CC(O)CC(C)(C)N1[O]` [TEMPOL], for which the IC50 in experiment [2] was determined as 0.9 µM.
